Data taken from US20240075004A1, “VERY-LONG-CHAIN POLYUNSATURATED FATTY ACIDS, ELOVANOID HYDROXYLATED DERIVATIVES, AND METHODS OF USE” (The Board of Supervisors of Louisiana State University and …, priority 2020, published 2024).

Assays:
HNEpC = HNEpC challenged with HDM: SPiDER β-galactosidase staining; format: cell-based, human; conditions: 500 nM; HDM 30 μg/ml
Method: ELVN-34 protects HNEpC from the senescence-associated secretory phenotype (SASP response). Representative images of HNEpC stained with Hoechst 33342 and spider β-galactosidase—(Panel A) untreated (Control), (Panel B) challenged with HDM (30 μg/ml), and (Panel C) HNEpC treated with HDM and ELVN-34:6 Na (500 nM). (Panel D) Quantitative assessment of increased SASP response (measured by the spider β-galactosidase staining) upon HDM exposure (30 μg/ml). ELVN-34:6 Na (500 nM) treatment reduces the number of beta-gal positive HNEpC induced by HDM. […] (*p<0.05).
Cryopreserved human nasal epithelial cells HNEpC were purchased from PromoCell GmbH, Heidelberg, Germany. (Catalog #C-1260, Lot #436Z028).
The cells used for our experiments are primary nasal epithelial cells obtained from the nasal mucosa of a person.
Cells were received in passage (P1) and were sub-culture to passage (P3), which were used for all the experiments.
HNEpC were grown to 80% confluency in Promocell's Airway epithelial cell growth medium (Catalog #C-21060) which was supplemented with airway epithelial cell growth medium supplement pack (Catalog #C-39160) and Penicillin/Streptomycin.

human RPE cells = test: Oxidative-stress and Erastin induced cell death in human RPE cells; format: cell-based
[1] = test system: pro-inflammatory transcriptome and pro-homeostatic pathways in RPE single-cells; test: UOS transcriptome in RPE single-cells; format: cell-based; conditions: 96 per sample
Source text: Dots in box plots represent expression of the gene for a single RPEC (total of 96 per sample). P<0.001 (***), P<0.01 (**), One-way Anova, with Post-Hoc Tukey HSD test for multiple comparisons.

RPE and PRC = test: Subretinal injection of OAβ in WT mice: fundus/OCT and ZO-1 whole flat mount of RPE; format: in vivo, C57BL/6J WT mice; conditions: OAβ-injected retina, 10 μM subretinal, 7 days; non-injected retina 105 μm
Method: All animal experiments were performed according to ARVO Statement for the Use of Animals in Ophthalmic and Vision Research, and the protocol was approved by LSU Health New Orleans' Institutional Animal Care and Use Committee (IACUC). 6-month-old 5×FAD mice (stock number: 34848-JAX, The Jackson Laboratory, Bar Harbor, ME, USA), co-overexpress FAD mutant forms of human amyloid precursor protein (the Swedish mutation: K670N, M671L; the Florida mutation: I716V; and the London mutation: V7171) and presenilin 1 (PS1, encoded by Psen1: M146L, L286V) transgenes under transcriptional control of the neuron-specific mouse Thy1 promoter. 5×FAD mice were hemizygotes with respect to the transgenes and non-transgenic WT littermates. Genotyping was performed by PCR of tail DNA. All analyses were carried out blind with respect to the mice genotype. For the subretinal injection, 6-month-old C57BL/6J mice were anesthetized by an intraperitoneal injection of ketamine/xylazine, pupils dilated with 1.0% tropicamide (Akorn, IL, USA); and 0.5% Proparacaine Hydrochloride (Akorn) was applied for topical anesthesia. Eyes were punctured with a 30-gauge needle between the corneoscleral junction and the ora serrata into the vitreous cavity without disturbing the lens. Compounds were delivered to the subretinal region using a 33-gauge blunt needle attached to a 5 μl Hamilton syringe (Hamilton Company, Reno, NV, USA) under a dissecting microscope. Non-injected mice were used as negative control while the PBS injected mice were used for sham. The injection volume was 2 μl containing PBS, 10 μM of OAβ, 10 μM of OAβ+200 ng ELV-N-32, 200 ng ELV-N-32 alone, 10 μM of OAβ+200 ng ELV-N-34 or 200 ng ELV-N-34 alone (n=12/group). All groups received topical drops: PBS only or ELV-N-32 (200 nM) or ELV-N-34 (200 nM), twice a day for 3 or 7 days.
For the whole mount RPE staining, eyeballs were enucleated and pre-fixed in 4% PFA for 15 min. Then the eye cup containing RPE sheet were fixed in 4% PFA for 30 min, washed in PBS 3× following the blocking step for 1 h at room temperature. The immunostaining was performed by incubating primary antibody (ZO-1) for 48 h at 4° C. Then the eye cups were washed 3× with PBS and incubated with the secondary antibody for 12 h at 4° C. The primary human RPE cells as well as mouse eye cups were embedded in ProLong™ Gold Antifade Mounting medium (Thermo Fisher Scientific) between two glass coverslips. Pictures were taken with Olympus FV1200 microscope (Olympus, Japan). Images were analyzed by software ImageJ (rsb.info.nih.gov/ij/).
7 days post-injection, mice were anesthetized with ip ketamine/xylazine, pupil dilated by topical 1.0% tropicamide and placed in a custom-built holder for OCT imaging (body temperature maintained at 38° C. with a heat pad). Retinas were imaged along the horizontal meridian through the optic nerve head using a Heidelberg Spectralis HRA OCT system (Heidelberg Engineering, Heidelberg, Germany). Axial resolution is […]. The raw OCT B-scans cross-sectional images were exported with the scale in m and opened in ImageJ (http//imagej.nih.gov/ij). The PRC layer thickness was defined as the width from the tip of the outer nuclear layer, right after the outer plexiform layer, to the outer segments of PRC. Three measurements were made on the same scan and averaged. Mean and standard error of the mean (SEM) were calculated (n=4/group). Students' T-test was used to calculate statistical significance and a P-value less than 0.05 was considered significant.

CC/C=C\C[C@H](O)\C=C/C=C/C=C/[C@H](O)C/C=C\C/C=C\CCCCCCCCCCCCCCC(=O)[O-].[Na+] [ELVN-34:6 Na, sodium (16Z,19Z,22R,23E,25E,27Z,29S,31Z)-22,29-dihydroxytetratriaconta-16,19,23,25,27,31-hexaenoate]
number of beta-gal positive HNEpC (SASP response, spider β-galactosidase staining) (HNEpC): reduces

CC/C=C\C[C@H](O)\C=C/C=C/C=C/[C@H](O)C/C=C\C/C=C\CCC(=O)O [NPD1, 10R,17S-dihydroxy-docosa-4Z,7Z,11E,13E,15Z,19Z-hexaenoic acid, reference compound]
oxidative-stress and Erastin induced cell deaths (human RPE cells): counteracted | UOS up-regulation of pro-inflammatory transcriptome and down-regulation of pro-homeostatic pathways [1]: suppress these changes

OAβ: Aβ (1-42) oligomerized for 24 h at 4° C.; cytotoxic challenge injected subretinally or added to cells [reference compound]
PRC layer thickness (OCT) (RPE and PRC): 35 μm
